Assays:
catalase [1] = assay: Catalase test: pressure increase after hydrogen peroxide addition to deinking process water of a paper factory; format: biochemical; conditions: 0.1% hydrogen peroxide
Method: (§1) The catalase test depends upon the measurement of the increase of the pressure in an airtight-closed vessel after the introduction of 0.1% hydrogen peroxide. With increasing concentration of catalase in a sample, the pressure to be measured increases correspondingly. The pressure is given as an electric signal in relative units (mV). The pressure increase is measured after 10 minutes.

[2] = Residual peroxide content by iodometric titration in deinking process water samples
From the text: The measurement of the residual peroxide content took place by iodometric titration.
The initial peroxide content corresponds to 100% (=0.1% hydrogen peroxide (100%)).

[3] = Laboratory deinking experiment with process water 1 (whiteness, flotate, ash, residual peroxide); conditions: 0 sample 15.7%
Method: Into 1 liter of water of 30° dH (tap water) are introduced:
(§2) Into the pulper (2800 r.p.m.) are introduced 50 g of atro waste paper and the chemical solution is subsequently introduced. The pulping time is 10 minutes. After ending of the brushing out time, the paper slurry is shaken out into a glass beaker, stirred up with a commercially available ultrasonic disperser and the pH value determined.
The pH value is 9.5±0.2. 100 ml are taken from the brushed out suspension and a sheet formed (degree of whiteness and brightness before the flotation).
(§3) The remaining fibre material is placed for 110 minutes in a waterbath with a temperature of 50° C. After the residence time, it is dispersed with a disperser for 1 minute at 10,000 r.p.m. The paper slurry is emptied into a flotation cell which is filled with water with a temperature of 50° C. There is thereby adjusted a material density of 0.8% (pH value 8.5). Air is introduced into the cell at a rate of 60 liters/hour and the speed of stirring is 1000 r.p.m. The flotation time is 10 minutes, foam being skimmed off manually. After the flotation is ended, acidification is carried out with sulphuric acid to pH 5 and sheets are formed.
The brightness and degree of whiteness are measured on the front and rear side and the average value determined.
R 457: reflection factor at 457 nm wavelength
Y/C: standard type of light C/1931
Process water 1 was used. The statements of percentage refer to the commercial product and the residual peroxide was determined by a titration method.

catalase [4] = assay: Pressure increase after hydrogen peroxide addition to process water 3 (rate of decomposition of peroxide); format: biochemical; conditions: 400 ppm referred to process water volume, 0.1% hydrogen peroxide, after 10 minutes, ambient temperature, 0 sample 9.8
Method: as §1
As sample, there was used process water 3 and worked up analogously to Example 1. After the addition of 0.1% hydrogen peroxide (referred to 100% hydrogen peroxide), there was measured the pressure increase in relative pressure units (in mV) after 10 minutes. The measurement took place at ambient temperature.

[5] = target: T1, enzyme catalase (No. C10 Sigma catalogue) (Bos taurus, UniProt P00432); assay: Action on the pure enzyme catalase, absorption decrease at 240 nm; format: biochemical
T1 construct: purchased Sigma C10
T1 sequence (P00432 2-527 limits assumed): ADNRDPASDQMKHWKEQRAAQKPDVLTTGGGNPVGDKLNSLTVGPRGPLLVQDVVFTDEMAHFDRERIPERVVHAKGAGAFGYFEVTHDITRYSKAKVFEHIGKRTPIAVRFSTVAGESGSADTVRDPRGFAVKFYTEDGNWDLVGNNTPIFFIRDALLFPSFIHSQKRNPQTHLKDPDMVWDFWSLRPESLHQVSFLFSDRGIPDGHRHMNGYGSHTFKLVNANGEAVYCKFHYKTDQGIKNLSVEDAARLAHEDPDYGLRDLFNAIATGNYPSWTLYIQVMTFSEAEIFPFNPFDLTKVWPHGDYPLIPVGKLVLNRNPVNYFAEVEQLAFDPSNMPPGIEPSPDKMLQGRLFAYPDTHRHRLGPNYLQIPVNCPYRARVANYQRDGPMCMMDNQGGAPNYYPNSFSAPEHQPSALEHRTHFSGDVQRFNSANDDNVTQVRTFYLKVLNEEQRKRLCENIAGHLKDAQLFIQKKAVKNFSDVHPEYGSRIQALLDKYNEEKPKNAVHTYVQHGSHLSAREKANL
Method: phosphate buffer 0.05M, pH 7.0 (K2 HPO4 : 8.7 g/l; KH2 PO4 : 6.8 g/l)
enzyme catalase (No. C10 Sigma catalogue)
substrate hydrogen peroxide (30%).
Dissolve catalase in 0.05M phosphate buffer.
Concentration: 50 sigma units per ml of buffer.
Dissolve 0.1 ml 30% hydrogen peroxide in 50 ml of 0.05M phosphate buffer (control) or in 50 ml phosphate buffer which contains the stabiliser (substrate). Measure the absorption at 240 nm. The result must lie between 0.550 and 0.520. Possibly dilute the solution or add more hydrogen peroxide thereto.
2.9 ml of solution B are placed in a quartz cuvette and subsequently mixed with 0.1 ml of solution A. The absorption at 240 nm should, at the beginning of the measurement, amount to approximately 0.450. The time needed for the decrease of the absorption at 240 nm from 0.450 to 0.400 is determined. This time corresponds to the conversion of 3.45 μmol hydrogen peroxide in 3 ml of sample volume.
(sigma units total)=3.45: time (minutes calculating back to active sigma units 1 sigma unit reacts 1.0 μmol hydrogen peroxide per minute (at pH 7.0; 25° C.).

[6] = Flotation experiment in tap water without waterglass (stability of hydrogen peroxide); conditions: no waterglass; for residual peroxide: 0 sample 15%
Method: as §2, §3
In the case of this experiment, working was analogous to Example 3 but tap water was used instead of process water. […] At the same time, in the case of this experiment, the addition of waterglass as stabiliser is omitted.

[7] = 400 ppm active substance, pressure increase after 10 minutes, comparison sample without additive 9.8

For `O=C(C(Cl)=NO)c1ccc(O)cc1` [paraclox, 2-oxo-2-(4-hydroxyphenyl)-acethydroximic acid chloride], the “pressure in relative units” value (catalase [1]; 10 ppm active substance, after 10 minutes) was 4.2 mV, the “pressure in relative units” value (catalase [1]; 100 ppm active substance, after 10 minutes) was 0.5 mV and the “pressure in relative units” value (catalase [1]; [7]) was 0.2 mV. The residual peroxide content ([2]; Process water 1 (clear filtrate), 10 ppm, 0 min.) was 100%, the residual peroxide content ([2]; Process water 1 (clear filtrate), 10 ppm, 30 min.) was 55.4% and the residual peroxide content ([2]; Process water 1 (clear filtrate), 10 ppm, 60 min.) was 43.1%. The residual peroxide content ([2]; Process water 1 (clear filtrate), 10 ppm, 90 min.) was 33.8%, the residual peroxide content ([2]; Process water 1 (clear filtrate), 10 ppm, 120 min.) was 26.9% and the residual peroxide content ([2]; Process water 1 (clear filtrate), 100 ppm, 0 min.) was 100%. The residual peroxide content ([2]; Process water 1 (clear filtrate), 100 ppm, 30 min.) was 95.4%, the residual peroxide content ([2]; Process water 1 (clear filtrate), 100 ppm, 60 min.) was 87.7% and the residual peroxide content ([2]; Process water 1 (clear filtrate), 100 ppm, 90 min.) was 87.7%. It also gave a residual peroxide content ([2]; Process water 1 (clear filtrate), 100 ppm, 120 min.) of 86.1%, a residual peroxide content ([2]; Process water 2 (drum 1), 2 ppm, 0 min.) of 100% and a residual peroxide content ([2]; Process water 2 (drum 1), 2 ppm, 30 min.) of 3.6%. For the same compound, the residual peroxide content ([2]; Process water 2 (drum 1), 2 ppm, 60 min.) was 0%, the residual peroxide content ([2]; Process water 2 (drum 1), 2 ppm, 90 min.) was 0% and the residual peroxide content ([2]; Process water 2 (drum 1), 2 ppm, 120 min.) was 0%. It also gave a residual peroxide content ([2]; Process water 2 (drum 1), 20 ppm, 0 min.) of 100%, a residual peroxide content ([2]; Process water 2 (drum 1), 20 ppm, 30 min.) of 62.1% and a residual peroxide content ([2]; Process water 2 (drum 1), 20 ppm, 60 min.) of 56.8%. For the same compound, the residual peroxide content ([2]; Process water 2 (drum 1), 20 ppm, 90 min.) was 50.8%, the residual peroxide content ([2]; Process water 2 (drum 1), 20 ppm, 120 min.) was 47% and the residual peroxide ([3]; paraclox 0.02%) was 21.4%. The residual peroxide ([3]; paraclox 0.04%) was 28.5%, the residual peroxide ([3]; paraclox 0.08%) was 49.7% and the “pressure increase in relative pressure units” value (catalase [4]) was 0.2 mV. For the same compound, the inhibition at 0.2 ppm ([5]; 0.2 ppm, pH 7.0) was 0%, the inhibition at 1 ppm ([5]; 1 ppm, pH 7.0) was 16% and the inhibition at 2 ppm ([5]; 2 ppm, pH 7.0) was 63%. The “stabilising action on the peroxide (in words)” value [6] was “very good stabilising action on the peroxide”, the residual peroxide ([6]; paraclox 0.02%) was 34.0% and the residual peroxide ([6]; paraclox 0.04%) was 41.0%. For the same compound, the residual peroxide ([6]; paraclox 0.08%) was 52.4%.

In the case of `N#CSCSC#N` [MBT, methylene bisthiocyanate], the “pressure in relative units” value (catalase [1]; [7]) is reported as 6.2 mV.

In the case of `OCl` [Sodium hypochlorite], the “action on the pure enzyme catalase (in words)” value ([5]; solution B (hydrogen peroxide in phosphate buffer)) is reported as “reacts in solution B with hydrogen peroxide with decomposition before catalase can be added”.

With `CNC(=S)S` [metamsodium, sodium monomethyldithiocarbamate] the “pressure in relative units” value (catalase [1]; [7]) was 5.0 mV.

For `OC[P+](CO)(CO)CO` [THPS, tetrakishydroxymethylphosphonium sulphate], the “pressure in relative units” value (catalase [1]; [7]) was > 9.0 mV.

For `CNC(=S)S` [MDTCMA, monomethylammonium monomethyl dithiocarbamate], the “pressure in relative units” value (catalase [1]; [7]) was > 9.0 mV.

For `N#CC(Br)(Br)C(N)=O` [DBNPA, 2,2-dibromo-3-nitrilopropionamide], the “pressure in relative units” value (catalase [1]; [7]) was > 9.0 mV.

`O=CCCCC=O` [glutaraldehyde] showed an inhibition at 0.5 ppm ([5]; 0.5 ppm, pH 7.0) of 6%, an inhibition at 2.5 ppm ([5]; 2.5 ppm, pH 7.0) of 9% and an inhibition at 5 ppm ([5]; 5 ppm, pH 7.0) of 11%.

From patent US5607544A, “Process and agent for the oxidative bleaching of wood pulp and for deinking waste paper” (BK Ladenburg GmbH fur Chemische Erzeugnisse, priority 1994, dated 1997)
